From patent US20240158446A1, “CYCLIC COMPOUND HAVING SELECTIVE INHIBITORY ACTION ON KRAS OVER HRAS AND NRAS” (CHUGAI SEIYAKU KABUSHIKI KAISHA, priority 2021, published 2024)
Where two headings read alike, the source gives them in different places. Where a SMILES comes first, the peptide text is derived from it. Bridges are numbered along the chain shown (N, C = ends). [ ]: non-standard residue; d: D form. The star is where a group is joined. hPhe(3-Cl-4-CF3) = N[C@@H](CCc1ccc(C(F)(F)F)c(Cl)c1)C(=O)O; NPrPhe(4-CF3) = CCCN[C@@H](Cc1ccc(C(F)(F)F)cc1)C(=O)O; NMeGly(cPent) = CN[C@H](C(=O)O)C1CCCC1; Pro(4,4-F2) = O=C(O)[C@@H]1CC(F)(F)CN1; Hyp = O=C(O)[C@@H]1C[C@@H](O)CN1; NMeD = CN[C@@H](CC(=O)O)C(=O)O; NMeL = CN[C@@H](CC(C)C)C(=O)O; Morpholide = C1CN(*)CCO1; Ac5c = NC1(C(=O)O)CCCC1; Ac4c = NC1(C(=O)O)CCC1; NEtG = CCNCC(=O)O; Sar = CNCC(=O)O

Tests used:
[1] = biological target: GDP-bound KRAS wild-type protein (Homo sapiens, UniProt P01116); test: Binding to KRAS by surface plasmon resonance (SPR), Single Cycle Kinetics; details: GDP-bound KRAS wild-type protein, read-out: KRAS KD
GDP-bound KRAS wild-type protein, sequence (P01116 whole entry): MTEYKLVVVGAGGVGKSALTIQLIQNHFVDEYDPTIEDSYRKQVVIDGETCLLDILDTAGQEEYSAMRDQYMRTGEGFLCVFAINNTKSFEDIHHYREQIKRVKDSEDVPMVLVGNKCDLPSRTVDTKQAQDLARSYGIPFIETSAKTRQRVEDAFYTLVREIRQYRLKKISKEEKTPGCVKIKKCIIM

[2] = biological target: GDP-bound NRAS wild-type protein (Homo sapiens, UniProt P01111); test: Binding to NRAS by surface plasmon resonance (SPR), Single Cycle Kinetics; details: SPR, GDP-bound NRAS wild-type protein vs GDP-bound KRAS wild-type protein
GDP-bound NRAS wild-type protein, sequence (P01111 whole entry): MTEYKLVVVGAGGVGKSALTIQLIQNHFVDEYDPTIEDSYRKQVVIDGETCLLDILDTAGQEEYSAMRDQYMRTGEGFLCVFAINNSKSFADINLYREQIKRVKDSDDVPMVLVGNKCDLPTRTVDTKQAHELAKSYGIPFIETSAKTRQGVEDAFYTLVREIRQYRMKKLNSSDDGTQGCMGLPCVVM

[3] = biological target: GDP-bound HRAS wild-type protein (Homo sapiens, UniProt P01112); test: Binding to HRAS by surface plasmon resonance (SPR), Single Cycle Kinetics; details: SPR, GDP-bound HRAS wild-type protein vs GDP-bound KRAS wild-type protein
GDP-bound HRAS wild-type protein, sequence (P01112 whole entry): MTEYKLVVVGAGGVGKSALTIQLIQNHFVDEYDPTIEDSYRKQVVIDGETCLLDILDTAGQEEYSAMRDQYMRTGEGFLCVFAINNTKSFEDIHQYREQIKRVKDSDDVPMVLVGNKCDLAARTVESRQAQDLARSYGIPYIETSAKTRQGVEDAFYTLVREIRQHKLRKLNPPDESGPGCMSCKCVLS

[4] = SPR Single Cycle Kinetics, 1:1 binding model

Row | Compound | Kd [1, 4] [nM] | NRAS/KRAS (ratio of KD value for NRAS to KD value for KRAS) [2] | HRAS/KRAS (ratio of KD value for HRAS to KD value for KRAS) [3] | Kd ([1]; SPR, Single Cycle Kinetics) [nM]
1 | CCCN1C(=O)CN(C)C(=O)CN(CC)C(=O)[C@H]([C@@H](C)CC)NC(=O)[C@H](CC(C)C)N(C)C(=O)C[C@@H](C(=O)N2CCOCC2)N(C)C(=O)[C@H](C2CCCC2)N(C)C(=O)C2(CCC2)NC(=O)[C@@H]2C[C@@H](OCC)CN2C(=O)[C@H](CCc2ccc(C(F)(F)F)c(Cl)c2)NC(=O)CN(C)C(=O)[C@@H]1Cc1ccc(C(F)(F)F)cc1 [PP0401] ([NMeL]I[NEtG][Sar][NPrPhe(4-CF3)][Sar][hPhe(3-Cl-4-CF3)][Hyp](Et)[Ac4c][NMeGly(cPent)][NMeD]-Morpholide; lactam N-11) | 0.15 | B (a compound having 3 or more and less than 10 is denoted as B) | B (a compound having 3 or more and less than 10 is denoted as B) | –
2 | CCCN1C(=O)CN(C)C(=O)CN(C)C(=O)[C@H]([C@@H](C)CC)NC(=O)[C@H](CC(C)C)N(C)C(=O)C[C@@H](C(=O)N2CCOCC2)N(C)C(=O)[C@H](C2CCCC2)N(C)C(=O)C2(CCCC2)NC(=O)[C@@H]2C[C@@H](OCC)CN2C(=O)[C@H](CCc2ccc(C(F)(F)F)c(Cl)c2)NC(=O)CN(C)C(=O)[C@@H]1Cc1ccc(C(F)(F)F)cc1 [PP0233] ([NMeL]I[Sar][Sar][NPrPhe(4-CF3)][Sar][hPhe(3-Cl-4-CF3)][Hyp](Et)[Ac5c][NMeGly(cPent)][NMeD]-Morpholide; lactam N-11) | 0.052 | B (a compound having 3 or more and less than 10 is denoted as B) | C (A compound having a KD ratio of 0.1 or more and less than 3 is denoted as C) | –
3 | CCO[C@@H]1C[C@H]2C(=O)NC3(CC=CC3)C(=O)N(C)[C@@H](C3CCCC3)C(=O)N(CC)[C@H](C(=O)N3CCOCC3)CC(=O)N(C)[C@@H](CC(C)C)C(=O)N[C@@H]([C@@H](C)CC)C(=O)N(C)CC(=O)N(C)[C@H]3CCCCCN(C3=O)[C@@H](Cc3ccc(C(F)(F)F)cc3)C(=O)N(C)CC(=O)N[C@@H](CCc3cc(F)c(C(F)(F)F)c(F)c3)C(=O)N2C1 [PP0956] | – | A (a compound having 10 or more and less than 20 is denoted as A) | A (a compound having 10 or more and less than 20 is denoted as A) | 7.2
4 | CCCN1C(=O)CN(C)C(=O)CN(C)C(=O)[C@H]([C@@H](C)CC)NC(=O)[C@H](CC(C)C)N(C)C(=O)C[C@@H](C(=O)N2CCOCC2)NC(=O)[C@H](C2CCCC2)N(C)C(=O)C2(CCCC2)NC(=O)[C@@H]2CC(F)(F)CN2C(=O)[C@H](CCc2ccc(C(F)(F)F)c(Cl)c2)NC(=O)CN(C)C(=O)[C@@H]1Cc1ccc(C(F)(F)F)cc1 [PP0321] ([NMeL]I[Sar][Sar][NPrPhe(4-CF3)][Sar][hPhe(3-Cl-4-CF3)][Pro(4,4-F2)][Ac5c][NMeGly(cPent)]D-Morpholide; lactam N-11) | 1 | B (a compound having 3 or more and less than 10 is denoted as B) | B (a compound having 3 or more and less than 10 is denoted as B) | –
5 | CC[C@H](C)[C@@H]1NC(=O)[C@@H]2CCCCCCc3ccc(cc3)C[C@@H](C(=O)N(C)CC(=O)N[C@@H](CCc3ccc(C(F)(F)F)c(OC)c3)C(=O)N3C[C@H](OC(C)C)C[C@H]3C(=O)NC3(CC(C)(C)C3)C(=O)N(C)[C@@H](C3CCCC3)C(=O)N(C)[C@H](C(=O)N(C)C)CC(=O)N2C)N2CC/C=C\C[C@@H](C2=O)N(C)C(=O)CN(C)C1=O [PP3067] | – | A (a compound having 10 or more and less than 20 is denoted as A) | B (a compound having 3 or more and less than 10 is denoted as B) | 0.053
